Results on seven compounds are retold here after patent US11354990B2, “Treatment of kidney diseases associated with elevated AVP” (United States Government As Represented By The Department …, priority 2017, dated 2022).

In data set [1] the test system is rodent models of ADPKD. Particulars: cited from earlier work; for cystogenesis: rodent models of ADPKD, by reducing cAMP production in the kidney.
Data set [2] deals with T1, P2Y12 receptor (Rattus norvegicus, UniProt Q9EPX4).
T1 construct: endogenous in cells; host or cells: primary cultures of rat hypothalamic cells
Put plainly: Blockade of P2Y12 receptor in primary cultures of rat hypothalamic cells: expression of AVP. The format is cell-based.

For data set [3], the system named is B6D2 mice. Nature of the data set: Ticagrelor in diet (or clopidogrel in drinking water) for 14 days: urinary AVP, urine output and urine osmolality in mice. The format is in vivo. Particulars: for effects shown in FIGS. 2-5 (urine output, urine osmolality, urinary AVP): comparison with other P2Y12 receptor antagonists. As to the method: The study evaluated the effect of increasing doses of ticagrelor from 0.05% to 0.25% (incremental doses of 0.05, 0.10, 0.15, 0.20 and 0.25%) administered to mice for 2 weeks and compared them with that obtained by administering increasing doses of clopidogrel bisulfate (20, 40 or 80 mg/kg bw/day). For this study adult B6D2 mice were used. Different doses of ticagrelor were administered embedded in diet. Clopidogrel bisulfate (Plavix® tablets) were powdered and dissolved in drinking water for administration. The concentration of clopidogrel in the water was adjusted on daily basis based on the water consumption by mice on the previous day.
Rodent diets containing ticagrelor at different concentrations were prepared as follows. 15 grams of ticagrelor was shipped to MP Biomedicals (Solon, Ohio, USA) for custom preparation of 10 kg of rodent chow in pellet form containing 0.15% ticagrelor. The custom-made diet was received and was stored at +4° C. Later in the study, for the preparation of diets containing 0.20% or 0.25%, the above custom-prepared diet (containing 0.15% ticagrelor) was used as a base and the required amount of ticagrelor was added. Diets containing 0.05 and 0.10% ticagrelor were prepared de novo.
Clopidogrel bisulfate was administered orally by mixing finely powdered Plavix® tablets (Bristol-Myers Squibb, New York, N.Y.) in drinking water. The concentration of the drug in the drinking water was adjusted daily based on the water consumption of the animals on the previous day. Three different doses (20, 40 and 80 mg/kg bw/day) were administered. Since it is not possible to work with more than 15 to 20 mice in metabolic cages at any given time, the experimental animals were handled in two batches in a staggered fashion. Urine samples were collected on day 0 (prior to the experimental period), on days 6/7 (end of the first week) and days 13/14 (end of the second week). Terminal blood samples were collected from the posterior vena cava at the time of euthanasia. Kidney tissues were collected and cortex and medulla were separated by sharp dissection and flash frozen for analysis. Within a few minutes after collection, blood samples were centrifuged at +4° C. and plasma was separated and frozen. Urinary AVP levels were assayed by ELISA.
(§1) Different doses of ticagrelor (0.05 to 0.25%) were administered to mice embedded in standard rodent chow (w/w) for 14 days. Twenty-four hour urine samples were collected from the mice by placing them in individual plastic metabolic cages (1 mouse/cage) for two consecutive days, with free access to food and water. Urine samples in the metabolic cages were collected under a layer of light mineral oil. The volumes of urine samples collected were recorded. Urine samples were centrifuged to remove particulate matter. Clear supernatants thus obtained were used for analysis. Blood samples were collected at the time of euthanasia on day 14, as per the protocol recommended by the AstraZeneca for samples destined for the determination of plasma ticagrelor. Briefly, under isoflourane anesthesia, blood from the posterior vena cava was collected and transferred to EDTA K-coated microtubes (Microvette®, Sarstedt, Nümbrecht, Germany). Plasma was separated by centrifugation within 30 min after collection and frozen at −80° C. The frozen samples were shipped in dry ice by FedEx to AstraZeneca (Mölndal, Sweden). At AstraZeneca R&D, the plasma concentration of ticagrelor was determined by liquid chromatography tandem mass spectrometry (LC-MS/MS). FIGS. 1-5 show the data obtained.

Data set [4] concerns lithium-induced NDI in rodent models. Conditions: cited from earlier work.
The subject of data set [5] is cAMP production in primary cultures of rat IMCD cells. Nature of the data set: dDAVP-induced cAMP production in primary cultures of rat IMCD cells (EIA). It is filed as cell-based. As to the method:
FIG. 7 is a graph showing the effect of ticagrelor on dDAVP-induced cAMP production in primary cultures of rat IMCD cells: Cells were incubated for 48 h with ticagrelor (5 μM). During the second 24 hours, cells were challenged with dDAVP (20 nM).
dDAVP acting through the vasopressin V2 receptor in IMCD cells stimulates the production of cAMP (FIG. 7). In the collecting ducts in vivo, in the short-term AVP increases cellular cAMP levels to cause translocation of AQP2 protein from the subapical vesicles to apical plasma membrane, and thus increase the water permeability of the apical plasma membrane, the rate limiting barrier for transepithelial water transport. In the long-term, increased cellular cAMP levels induce transcriptional activation of AQP2 and other genes. […] Primary cultures of rat IMCD cells were prepared and incubated with desmopressin with/without ticagrelor (5 μM) as described above. For cAMP assay, the medium was gently aspirated, 200 μl of 0.1 M HCl was added to each insert and incubated for 20 min at room temperature. Then cells were scrapped off the semi-permeable support and lysed by pipetting up and down. The cell lysate was centrifuged at 1,000×g for 10 min. cAMP concentration in the supernatant was determined by an EIA kit (Cayman Chemical Co.) and normalized to the protein content of the wells (Pierce™ BCA Protein Assay Kit, Rockford, Ill.).
In general terms: Changes in cAMP serve as a functional read-out for many G protein-coupled receptors.

Data set [6] can be described thus: Plasma concentration of ticagrelor by LC-MS/MS in mice fed ticagrelor. The format is in vivo. Conditions: corresponding to a dose of 0.15% or above in food, day 14. How it is done: as §1
Data set [7] deals with AQP2. Put plainly: dDAVP-induced AQP2 mRNA expression in primary cultures of rat IMCD cells (real-time PCR). It is filed as cell-based. As to the method:
(§2) FIGS. 6A-C show the effect of ticagrelor on the mRNA expression of AQP2 (A) and AQP3 (B) relative to the expression R3-actin and the effect of ticagrelor on the mRNA expression of AQP2 relative to GAPDH (C) in primary cultures of rat inner medullary collecting duct (IMCD) cells. Cells were incubated with different concentrations of ticagrelor (0.5 to 25 μM) for 48 hours. During the second 24 hours, the cells were challenged with dDAVP (20 nM). The numbers in parentheses above the bars indicate the number of culture wells.
(§3) Primary cultures of rat inner medullary collecting duct (IMCD) cells were prepared. When the cells became 70-80% confluent, the medium was changed to relative starvation mode (low FBS), and used for testing the effect of Desmopressin (dDAVP), a V2 receptor-selective analogue of AVP, and/or ticagrelor. Cells were incubated for 48 h with ticagrelor ranging from 1.5 to 25 μM. During the second 24 hours, cells were challenged with dDAVP (20 nM). At the end of the incubation period, cells were harvested, RNA extracted, reverse transcribed and subjected to real-time PCR to determine the expression of AQP2 and AQP3 genes relative to the expression of the housekeeping genes (β-actin or GAPDH).
(§4) Results (FIGS. 6A-C) are presented as percent of the values in control incubations without any addition of agents. FIGS. 6A-C show the effect of different concentrations of ticagrelor on dDAVP (20 nM)-induced AQP2 or AQP3 expression relative to p-actin expression in primary cultures of rat IMCD cells. Two independent assays on primary cultures of IMCD cells derived from two different rats at different times were used, and the data obtained were pooled for analysis and presentation in the graphs. Data were analyzed by analysis of variance (ANOVA) followed by Tukey-Kramer Multiple Comparison Test. The numbers in parentheses above the bars indicate the number of culture wells.
(Real-time PCR tracks product formation cycle by cycle.)

In data set [8] the test system is AQP3. Nature of the data set: dDAVP-induced AQP3 mRNA expression in primary cultures of rat IMCD cells (real-time PCR). The format is cell-based. How it is done: as §2, §3, §4
Data set [9] relates to medullary collecting duct cells. Nature of the data set: Proliferation of medullary collecting duct cells. It is filed as cell-based. Particulars: increasing concentrations of ticagrelor.
The conditions of data set [10]: patients; long-term administration; cited from earlier work.
The target in data set [11] is CYP3A4 system (Homo sapiens, UniProt P08684). Particulars: cited from earlier work.
For data set [12], the target named is vasopressin V2 receptor (Homo sapiens, UniProt P30518). Particulars: chronic blockade of vasopressin V2 receptor; cited from earlier work.
For data set [13], the system named is DBA/2FG-pcy mouse model of ADPKD. Conditions: tolvaptan concentrations between 0.01% and 0.30% in food; cited from earlier work.
For data set [14] the following is noted: in vivo; cited from earlier work.
In data set [15] the test system is ADPKD. Particulars: clinical trials; cited from earlier work.
Where [16] appears, read: ticagrelor 0.05 to 0.25% in food, 14 days.
[17] abbreviates: different concentrations of ticagrelor 48 h, dDAVP 20 nM during second 24 h.
The mark [18] stands for this setting: different concentrations of ticagrelor 48 h, dDAVP 20 nM during second 24 h, listed as Ticagrelor.
The mark [19] stands for this setting: ticagrelor 2 μM, listed as Ticagrelor.
[20] abbreviates: ticagrelor 10 μM, listed as Ticagrelor.

“Also recorded” adds a separate entry of the source.

Chain of CYP3A4 system (P08684 whole entry): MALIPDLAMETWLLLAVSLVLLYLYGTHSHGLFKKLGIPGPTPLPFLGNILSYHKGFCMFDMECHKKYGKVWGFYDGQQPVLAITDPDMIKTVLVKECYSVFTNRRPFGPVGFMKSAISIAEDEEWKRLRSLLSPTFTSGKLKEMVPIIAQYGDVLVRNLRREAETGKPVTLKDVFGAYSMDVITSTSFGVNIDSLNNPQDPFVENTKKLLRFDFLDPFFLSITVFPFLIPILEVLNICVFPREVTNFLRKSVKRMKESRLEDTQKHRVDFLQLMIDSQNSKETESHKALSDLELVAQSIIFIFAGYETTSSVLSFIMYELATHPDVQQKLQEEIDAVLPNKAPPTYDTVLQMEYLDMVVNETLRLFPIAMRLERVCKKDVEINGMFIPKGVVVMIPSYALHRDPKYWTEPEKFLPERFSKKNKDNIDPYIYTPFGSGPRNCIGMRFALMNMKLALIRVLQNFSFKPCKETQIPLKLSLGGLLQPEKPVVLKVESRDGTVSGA
Chain of vasopressin V2 receptor (P30518 whole entry, species assumed): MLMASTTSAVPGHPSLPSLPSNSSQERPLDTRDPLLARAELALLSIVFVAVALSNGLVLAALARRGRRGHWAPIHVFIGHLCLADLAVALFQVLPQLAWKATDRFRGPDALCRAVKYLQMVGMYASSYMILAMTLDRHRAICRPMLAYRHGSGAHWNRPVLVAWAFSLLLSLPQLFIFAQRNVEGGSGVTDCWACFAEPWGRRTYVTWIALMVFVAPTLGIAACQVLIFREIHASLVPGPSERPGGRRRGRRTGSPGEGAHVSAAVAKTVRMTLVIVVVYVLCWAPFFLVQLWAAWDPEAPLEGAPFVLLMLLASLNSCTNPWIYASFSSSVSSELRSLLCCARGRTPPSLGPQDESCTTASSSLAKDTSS
T1 sequence (Q9EPX4 whole entry): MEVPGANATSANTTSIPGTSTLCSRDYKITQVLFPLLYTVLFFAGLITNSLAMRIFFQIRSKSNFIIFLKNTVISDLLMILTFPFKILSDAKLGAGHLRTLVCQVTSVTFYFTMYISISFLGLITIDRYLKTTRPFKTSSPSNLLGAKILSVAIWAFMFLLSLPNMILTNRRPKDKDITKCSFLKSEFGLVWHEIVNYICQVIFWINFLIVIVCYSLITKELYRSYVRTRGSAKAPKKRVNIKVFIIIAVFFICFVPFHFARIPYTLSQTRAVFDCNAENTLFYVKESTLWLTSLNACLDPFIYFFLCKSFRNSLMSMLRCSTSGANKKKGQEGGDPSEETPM

Consider `Cc1ccccc1C(=O)Nc1ccc(C(=O)N2CCCC(N(C)C)c3ccccc32)cc1` (stereo not drawn) [OPC-31260], for which the cystogenesis entry in data set [1] is listed as “consistently inhibited”.
As for `Nc1c(S(=O)(=O)O)cc(Nc2ccc(Nc3ccccc3)c(S(=O)(=O)O)c2)c2c1C(=O)c1ccccc1C2=O` [PSB-0739], the “expression of AVP” value in [2] is given as “increased”.
Consider `COC(=O)[C@H](c1ccccc1Cl)N1CCc2sccc2C1` [clopidogrel, clopidogrel bisulfate], for which, in data set [3], the “effects shown in FIGS. 2-5 (urine output, urine osmolality, urinary AVP)” value is on record as “could not be seen”. The “effect on the production of AVP by the hypothalamus” value in data set [3] (mouse, in vivo) is given as “did not have such an effect”. The “lithium-induced NDI” value in data set [4] is listed as “significantly ameliorate”.
Take `NC(=O)CC[C@@H]1NC(=O)[C@H](Cc2ccccc2)NC(=O)[C@H](Cc2ccc(O)cc2)NC(=O)CCSSC[C@@H](C(=O)N2CCC[C@H]2C(=O)N[C@H](CCCN=C(N)N)C(=O)NCC(N)=O)NC(=O)[C@H](CC(N)=O)NC1=O` [desmopressin, Desmopressin]: the “increase in cellular cAMP levels” value in data set [5] (20 nM desmopressin, IMCD cells) is 3.6 fold.
On to `CC(=O)Oc1cc2c(s1)CCN(C(C(=O)C1CC1)c1ccccc1F)C2` (stereo not drawn) [prasugrel], for which the “effects shown in FIGS. 2-5 (urine output, urine osmolality, urinary AVP)” value in data set [3] is given as “could not be seen”.
In the case of `CCCSc1nc(N[C@@H]2C[C@H]2c2ccc(F)c(F)c2)c2nnn([C@@H]3C[C@H](OCCO)[C@@H](O)[C@H]3O)c2n1` [ticagrelor], the “urinary AVP (vasopressin)” value in data set [3] (0.25% ticagrelor in the food) was “marked decrease”. For the same compound, the urine concentrating ability result in data set [3] (0.25% ticagrelor in the food) was “significant reduction”. In addition, the “urinary AVP” value in data set [3] (lower doses of ticagrelor in the food) is reported as “minimal effect”. In addition, the urine osmolality result in [3] (setting [16]) is “decrease”. Besides, the urine output entry in data set [3] (setting [16]) is reported as “increase”. Further, the “urinary AVP excretion” value in data set [3] (ticagrelor 0.05 to 0.25% in food, 14 days, 24-hour urine, normal mice) is “dose-related decrease; also recorded: dose-dependent decrease”. Besides, the urinary concentrating ability result in [3] (ticagrelor 0.05 to 0.25% in food, 14 days, assessed by urine output and osmolality) is on record as “dose-related decrease; also recorded: dose-dependent decrease”. The “plasma ticagrelor level above which the relation to urine osmolality and AVP was more pronounced” value in data set [6] is recorded as “above 1.30 μM”. In addition, the “effect on dDAVP-induced AQP2 mRNA expression” value is reported as “augmented” in data set [7] (setting [17]); “tendency for concentration-dependent enhancement” in data set [7] (setting [18]); “augmentative effect was seen; also recorded: tendency to augment” in data set [7] (ticagrelor 2 μM); “statistically significant” in data set [7] (setting [19]); “more prominent” in data set [7] (ticagrelor 10 μM); “statistically significant” in [7] (setting [20]). Further, the “effect on dDAVP-induced increase in AQP2 expression” value in [7] (ticagrelor 5 μM) is on record as “did not suppress”. The “effect on AQP2 gene expression” value in [7] (ticagrelor 25 μM) is reported as “suppressing the gene expression to a very low level; also recorded: almost completely suppressed”. The “effect on dDAVP-induced AQP3 mRNA expression” value is given as “augmented” in data set [8] (setting [17]); “tendency for concentration-dependent enhancement” in data set [8] (setting [18]); “augmentative effect was seen; also recorded: tendency to augment” in data set [8] (ticagrelor 2 μM); “statistically significant” in [8] (setting [19]); “more prominent” in data set [8] (ticagrelor 10 μM); “statistically significant” in data set [8] (setting [20]). Also, in data set [8] (ticagrelor 5 μM), the “effect on dDAVP-induced increase in AQP3 expression” value is listed as “did not suppress”. The “effect on AQP3 gene expression” value in data set [8] (ticagrelor 25 μM) was “suppressing the gene expression to a very low level; also recorded: almost completely suppressed”. Moreover, the “effect on desmopressin-induced cAMP levels” value in [5] (5 μM ticagrelor, 48 h, dDAVP 20 nM) was “did not have any significant effect”. In addition, the “proliferation of medullary collecting duct cells” value in data set [9] is “decrease”. Besides, the side effects result in data set [10] is “uncontrolled bleeding from wounds or internal ulcers”.
Turning to `Cc1ccccc1C(=O)Nc1ccc(C(=O)N2CCCC(O)c3cc(Cl)ccc32)c(C)c1` (stereo not drawn) [tolvaptan], in [1] (experimental models of ADPKD), the cyst growth entry was “slow down the cyst growth”. For the same compound, the cystogenesis entry in data set [1] is “consistently inhibited”. For the same compound, the side effects entry in data set [10] is “severe polyuria (loss of water in the urine), nocturia (frequent urination in the night), thirst and dry mouth; also recorded: constipation, loss of appetite, dry skin, nausea, vomiting, and potential for acute liver failure”. Also, the metabolism entry in data set [11] is “metabolized by the CYP3A4 system”. The “endogenous production of AVP” value in data set [12] was “increased”. Also, the “optimum concentration in food” value in [13] is 0.10%. Also, in data set [14], the pharmacokinetics result is given as “dose-related pharmacokinetics, it is unpredictable in ADPKD patients”. In addition, in data set [15], the “efficacy for the treatment of ADPKD” value is on record as “established”.
